{"source": "patent US12384775B2", "about": "“Pyrimid-2-yl-pyrazole compounds as IRAK inhibitors” (Rigel Pharmaceuticals, Inc., priority 2022, dated 2025)", "key": {"IRAK4": {"molecular_target": "T1, IRAK4 (Homo sapiens, UniProt Q9NWZ3)", "T1 construct": "purchased Signalchem I12-10G-20", "T1 sequence (Q9NWZ3 1-460)": "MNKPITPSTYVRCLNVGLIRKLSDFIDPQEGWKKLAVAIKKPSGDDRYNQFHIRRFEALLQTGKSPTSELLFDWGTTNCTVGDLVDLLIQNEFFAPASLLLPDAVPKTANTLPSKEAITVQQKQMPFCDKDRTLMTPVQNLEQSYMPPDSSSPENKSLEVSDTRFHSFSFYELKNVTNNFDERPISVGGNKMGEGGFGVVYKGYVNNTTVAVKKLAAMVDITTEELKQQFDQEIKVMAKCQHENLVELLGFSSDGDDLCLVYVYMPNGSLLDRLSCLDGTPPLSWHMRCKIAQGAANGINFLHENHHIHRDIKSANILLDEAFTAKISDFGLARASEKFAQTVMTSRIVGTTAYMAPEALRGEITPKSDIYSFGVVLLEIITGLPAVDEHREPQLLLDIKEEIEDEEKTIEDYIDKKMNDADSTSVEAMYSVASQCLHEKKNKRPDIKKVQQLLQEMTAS", "test": "IRAK4 ADP-Glo kinase assay", "assay_type": "biochemical", "conditions": "for IC50: n >= 3", "method": "The ADP-Glo™ reagents were thawed at ambient temperature. The Kinase Detection Reagent was prepared by mixing kinase detection buffer with the lyophilized kinase detection substrate, and set aside.\nA stock volume of 5× Reaction Kinase Buffer was made with a final concentration of 100 mM MgCl2, 200 mM Tris-HCl, and 0.5 mg/ml of BSA, in distilled H2O with a final pH7.4. A 2× working stock volume of Reaction Kinase Buffer was made containing a final concentration of 100 μM DTT.\nThe components of IRAK4 Enzyme were thawed on ice. Diluted IRAK4 in 1× Kinase Reaction Buffer (diluted from 2× buffer) was prepared at […]. A 250 μM working stock ATP Assay Solution was prepared in 1× Kinase Reaction Buffer (diluted from 2× buffer).\nThe compound was diluted in DMSO from 250 µM in 4-fold series dilutions for 8 points. Then diluted 1:5 in 2× Reaction Buffer in a 96 well plate. 1.0 μl was transferred to a 384 well plate in duplicate. […] 1 μl of 1 mg/ml stock solution of MBP substrate was added NOTE: MBP can be combined with ATP mix with equal volume and then added at 2 μl/well. Final reaction volume was 5 μl. The plate was centrifuged and the reaction mixture was incubated at room temperature for 60 minutes or at 30° C. for 30 minutes.\nThe reaction was terminated and the remaining ATP was depleted by adding 5 μl of ADP-Glo™ Reagent. The 384-well plate was centrifuged and then the reaction mixture was incubated for another 40 minutes at ambient temperature.\n10 μl of the Kinase Detection Reagent was added. The plate was centrifuged and then the reaction mixture was incubated for another 30 minutes at ambient temperature.\nThe 384-well reaction plate was read using the WALLAC plate reader (Luminescence 0.1s)."}, "[1]": {"test": "Plasma protein binding, equilibrium dialysis (RED), dog", "assay_type": "in vitro ADME", "conditions": "drug 5 μM; for fraction unbound at 5 μM: read-out: % bound (converted)", "method": "(§1) Brain and plasma drug binding were performed by equilibrium dialysis using the Rapid Equilibrium Dialysis (RED) device. Briefly, 300 μL of plasma or brain homogenate (1 brain/3 buffer) containing drug (5 μM) was equilibrated (4-18 h) against 500 μL of buffered saline. After incubation, the concentration of drug in plasma/brain homogenate and buffer was determined by LC-MS/MS.\n(§2) Recovery is calculated by determining the total amount of drug in 50 μL of plasma and 50 μL buffer after the incubation and comparing that value to the amount of drug in 50 μL of a plasma sample that was not incubated. For the protein binding assay, drug was added to the plasma and this plasma was added to one side of the dialysis device while buffer was added to the other. After filing the plasma chamber of the equilibrium device, a 50 μL aliquot of plasma was mixed with 50 μL of buffer and then quenched with stop reagent. Drug recovery=(Drug buffer+Drug plasma)/(drug in initial plasma)"}, "[2]": {"test": "Plasma protein binding, equilibrium dialysis (RED), rat", "assay_type": "in vitro ADME", "conditions": "for recovery at 5 μM / fraction unbound at 5 μM: Rat plasma, drug 5 μM; for fraction unbound at 5 μM: read-out: % bound (converted); for Free Fraction in Whole Blood Assay, Rat: plasma free fraction", "method": "as §1, §2"}, "[3]": {"tested_on": "TLR7-induced TNF-α production in human primary dendritic cells (DC)", "test": "Gardiquimod-induced TNF-α in human monocyte-derived dendritic cells (DC)", "assay_type": "cell-based", "conditions": "Dendritic cell, gardiquimod 4 μg/ml, read-out: Cell Assays IC50, TNFα (DC, Gard)", "method": "Human peripheral blood mononuclear cells (PBMC) (400 million) were allowed to adhere in a T-175 flask containing 15 ml RPMI media (10% FBS) for 2 hours at 37° C., 5% CO2 to capture the monocytes.\nAfter 2 hours, the media including floating cells was carefully removed and 12 ml of fresh RPMI media (10% FBS) containing GM-CSF (100 ng/ml) and IL-4 (20 ng/ml) were added to the adherent monocytes. The monocytes were allowed to differentiate for 7 days at 37° C., 5% CO2 for 7 days, supplementing with fresh GM-CSF and IL-4 after 3 days.\nThe differentiated dendritic cells (DC) were harvested by centrifugation (1200 rpm/5 min). The DCs were primed at 37° C., 5% CO2 for 24 hours with 50 ng/ml IFN-7 (1000 U/ml) at 50K/well in 100 μL/well of fresh RPMI media (10% FBS) in a white clear bottom 96 well plate.\nCompound was serially diluted in DMSO from 2.5 mM in 4-fold dilutions, and then diluted 1:125 in RPMI 1640 complete media with 10% FBS. The primed DCs were pre-incubated with test compound for 1 hour at 37° C., 5% CO2 by adding 100 μl of RPMI media containing 2× concentrated test compound per well (0.5% final DMSO concentration).\nThe DCs were stimulated with gardiquimod (10 μL per well of 20× concentrated gardiquimod solution in RPMI media to give a final concentration of 4 μg/ml) at 37° C., 5% CO2 for an additional 18 hours. […] TNF-α was quantitated by ELISA, following the kit protocol."}, "[4]": {"tested_on": "Gardiquimod-Induced IL-6 in Human Blood", "test": "Gardiquimod-induced IL-6 in human whole blood", "assay_type": "cell-based", "conditions": "Gardiquimod 4 μg/ml overnight, read-out: Human Whole Blood Assays (IC5050), IL-6 Gard", "method": "To assess the effect of whole blood on the potency of compound I-1 and Comparison-1, the compounds were evaluated for their inhibitory potential on TLR dependent cytokine release in human blood. Freshly drawn peripheral blood from healthy volunteers was incubated with test compound and stimulated overnight with LPS or Gardiquimod. The serum was isolated after centrifugation and TNF-α and IL-6 were measured by ELISA.\nWhole blood of healthy volunteers was collected in Vacutainer containing Sodium Heparin and 40 μL of blood was plated to each well. Compound was serially diluted in DMSO from 2 mM in 3-fold dilutions, and then diluted 1:100 in media with 10% FBS. 50 μL of 2× compound per well in duplicate was added to each well and incubated for one hour. 10 μL Gardiquimod was added to each well at a final concentration of 4 μg/ml and cells were incubated overnight.\n100 μL of PBS was added to each well and centrifuged for 10 minutes at 1000 RPM 25 μL of supernatant were taken, and IL-6 was measured by Luminex Flexmap 3d."}}, "data": [{"smiles": "CCO[C@H]1CC[C@H](n2cc(NC(=O)c3csc(-c4cn[nH]c4)n3)c(-c3nc(F)ccc3F)n2)CC1", "note": "[Comparison-1, reference compound]", "values": [{"measurement": "IC50", "setting": "IRAK4", "result": "6 ± 6", "unit": "nM"}, {"measurement": "recovery at 5 μM", "setting": "[1]", "result": 77.2, "unit": "%"}, {"measurement": "fraction unbound at 5 μM", "setting": "[1]", "result": 0.01}, {"measurement": "recovery at 5 μM", "setting": "[2]", "result": 68.3, "unit": "%"}, {"measurement": "fraction unbound at 5 μM", "setting": "[2]", "result": 0.007}, {"measurement": "Free Fraction in Whole Blood Assay, Rat", "setting": "[2]", "result": 0.7, "unit": "%"}, {"measurement": "IC50", "setting": "[3]", "result": 19, "unit": "nM"}, {"measurement": "IC50", "setting": "[4]", "result": 1400, "unit": "nM"}]}, {"smiles": "CCO[C@H]1CC[C@H](n2cc(NC(=O)c3csc(-c4cn[nH]c4)n3)c(-c3ncccn3)n2)CC1", "note": "[Compound I-1, N-(1-((1r,4r)-4-ethoxycyclohexyl)-3-(pyrimidin-2-yl)-1H-pyrazol-4-yl)-2-(1H-pyrazol-4-yl)thiazole-4-carboxamide]", "values": [{"measurement": "IC50", "setting": "IRAK4", "result": "7 ± 4", "unit": "nM"}, {"measurement": "EC50", "setting": "IRAK4; read-out: IRAK4 ADP-Glo Kinase, 8 pt EC50", "result": 7, "unit": "nM"}, {"measurement": "recovery at 5 μM", "setting": "[1]", "result": 70.7, "unit": "%"}, {"measurement": "fraction unbound at 5 μM", "setting": "[1]", "result": 0.066}, {"measurement": "recovery at 5 μM", "setting": "[2]", "result": 73.9, "unit": "%"}, {"measurement": "fraction unbound at 5 μM", "setting": "[2]", "result": 0.037}, {"measurement": "Free Fraction in Whole Blood Assay, Rat", "setting": "[2]", "result": 3.7, "unit": "%"}, {"measurement": "IC50", "setting": "[3]", "result": 5, "unit": "nM"}, {"measurement": "IC50", "setting": "[4]", "result": 124, "unit": "nM"}]}]}
